Reference: patent US11834451B2 (priority 2021, dated 2023)
Read-outs that look alike come from different tables or passages of the source.

Experiments:
EV-D68 = assay: microbe, parasite or virus in culture; type: cell-based, enterovirus D68 (EV-D68); conditions: Enterovirus D, EVD68, RD
EV-A71 = assay: microbe, parasite or virus in culture; type: cell-based, enterovirus A71 (EV-A71); conditions: Enterovirus A, EVA71, RD
CVB3 Nancy virus = assay: microbe, parasite or virus in culture; type: cell-based, coxsackievirus B3 (CVB3); conditions: Enterovirus B, CVB3, Vero, read-out: EC50, Anti-CVB3 in Vero cells
RD cells = conditions: human
Vero cells = conditions: African green monkey
in vitro = conditions: human
EV-D68 US/MO/14-18947 = assay: microbe, parasite or virus in culture; type: cell-based, enterovirus D68 (EV-D68); conditions: for EC50: Enterovirus D, EVD68, read-out: EC50, viral replication in neuronal cells (immunofluorescence, anti-VP1)
EV-D68, EV-A71, and CVB3 = assay: organism not typed; type: cell-based; conditions: for EC50: RD, read-out: EC50 values range against all EV-D68 and EV-A71 strains tested
[1] = test system: EV-A71 Tainan/4643/1998 2C protein; type: binding
CVB3 Nancy 2C protein = CVB3 Nancy 2C protein (Coxsackievirus B3, UniProt P03313); type: binding
Sequence of CVB3 Nancy 2C protein (P03313 1101-1429 limits assumed): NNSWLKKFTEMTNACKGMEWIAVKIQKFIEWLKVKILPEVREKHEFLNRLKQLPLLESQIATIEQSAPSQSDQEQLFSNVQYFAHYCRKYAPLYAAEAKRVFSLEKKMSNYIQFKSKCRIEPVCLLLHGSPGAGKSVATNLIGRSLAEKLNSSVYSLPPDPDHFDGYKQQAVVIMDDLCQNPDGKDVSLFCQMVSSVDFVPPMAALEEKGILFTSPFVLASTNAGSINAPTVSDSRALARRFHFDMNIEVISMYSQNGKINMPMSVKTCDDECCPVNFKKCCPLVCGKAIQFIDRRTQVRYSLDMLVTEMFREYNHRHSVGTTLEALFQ

[2] = read-out: EC50, Anti-EV-D68 US/KY/14-18953 in RD cells
[3] = read-out: EC50, Anti-EV-A71 Tainan/4643/1998 in RD cells
[4] = CC50, in RD cells (Anti-EV-A71)
[5] = read-out: EC50, EV-D68 US/IL/14-18952 (Clade B2)
[6] = read-out: EC50, EV-D68 US/IL/14-18956 (Clade B2)
[7] = read-out: EC50, EV-D68 US/KY/14-18953 (Clade D)
[8] = read-out: EC50, EV-D68 US/MO/14-18947 (Clade B1)
[9] = read-out: EC50, EV-D68 US/MO/14-18949 (Clade B1)
[10] = read-out: EC50, EV-A71 Tainan/4643/1998
[11] = read-out: EC50, EV-A71 USA/CT/2016-19519
[12] = CC50 (EV-A71 USA/CT/2016-19519)
[13] = CC50 (EV-D68 US/IL/14-18952 row group)
[14] = CC50 (EV-D68 US/IL/14-18956 row group)
[15] = CC50 (EV-D68 US/KY/14-18953 row group)
[16] = CC50 (EV-D68 US/MO/14-18947 row group)
[17] = CC50 (EV-D68 US/MO/14-18949 row group)
[18] = CC50, in RD cells (Anti-EV-D68)

SMILES	EC50 (EV-D68; [2])	EC50 (EV-A71; [3])	EC50 (CVB3 Nancy virus)	CC50 (RD cells)	CC50 (Vero cells)	CC50 (in vitro; [4])	other results
Cc1cc(C(=O)NCCN)c2cnn(C(C)C)c2n1 [Compound 12e, N-(2-aminoethyl)-6-methyl-1-(propan-2-yl)-1H-pyrazolo[3,4-b]pyridine-4-carboxamide]	4.7 µM	0.7 µM	3.8 µM	> 300 µM	> 300 µM	> 300 µM	
Cc1cc(CCCOc2c(C)cc(-c3noc(C(F)(F)F)n3)cc2C)on1 [pleconaril, reference compound]							viral replication (VP1 fluorescence signal) (EV-D68 US/MO/14-18947; at 50 μM): completely abolished viral replication
CCn1ncc2c(C(=O)NCCNC)cc(C)nc21 [Compound 15b, 1-ethyl-6-methyl-N-[2-(methylamino)ethyl]-1H-pyrazolo[3,4-b]pyridine-4-carboxamide]	58.4 µM	> 20 µM		> 300 µM			
CC(CN(C)C)NC(=O)c1cc(C(C)C)nc2c1cnn2C(C)C (stereo not drawn) [Compound 10c, N-[1-(dimethylamino)propan-2-yl]-1,6-bis(propan-2-yl)-1H-pyrazolo[3,4-b]pyridine-4-carboxamide]	0.1 µM	1 µM	0.1 µM	> 100 µM		70.3 µM	
CNCCNC(=O)c1cc(C2CC2)nc2c1cnn2C(C)C [Compound 7h, 6-cyclopropyl-N-[2-(methylamino)ethyl]-1-(propan-2-yl)-1H-pyrazolo[3,4-b]pyridine-4-carboxamide]	0.2 µM	0.2 µM	0.2 µM		> 100 µM	236 µM	EC50 (EV-D68; [5]): 0.2 µM; EC50 (EV-D68; [6]): 0.2 µM; EC50 (EV-D68; [7]): 0.2 µM; EC50 (EV-D68; [8]): 0.2 µM; EC50 (EV-D68; [9]): 0.2 µM; EC50 (EV-A71; read-out: EC50, EV-A71 A71 MP4): 0.3 µM; EC50 (EV-A71; [10]): 0.2 µM; EC50 (EV-A71; [11]): 0.1 µM; EC50 (EV-D68 US/MO/14-18947): 0.07 µM; EC50 (EV-D68, EV-A71, and CVB3): 0.06 to 0.3 µM; CC50 (in vitro; CC50 (EV-A71 Tainan/4643/1998)): 236 µM; CC50 (in vitro; [12]): 236 µM; CC50 (in vitro; [13]): 236 µM; CC50 (in vitro; [14]): 236 µM; CC50 (in vitro; [15]): 236 µM; CC50 (in vitro; [16]): 236 µM; CC50 (in vitro; [17]): 236 µM; CC50 (in vitro; [18]): 236 µM
CNCCNC(=O)c1cc(C(C)C)nc2c1cnn2C(C)C [Compound 10d, N-[2-(methylamino)ethyl]-1,6-bis(propan-2-yl)-1H-pyrazolo[3,4-b]pyridine-4-carboxamide]	0.4 µM	0.1 µM	0.3 µM	> 100 µM		> 100 µM	
Cc1cc(C(=O)NC2CCN(C)C2)c2cnn(C(C)C)c2n1 (stereo not drawn) [Compound 12b, 6-methyl-N-(1-methylpyrrolidin-3-yl)-1-(propan-2-yl)-1H-pyrazolo[3,4-b]pyridine-4-carboxamide]	1.8 µM	0.5 µM	0.8 µM	> 300 µM	> 300 µM	> 300 µM	
CN(C)CCNC(=O)c1cc(C2CC2)nc2c1cnn2C [Compound 17, 6-cyclopropyl-N-[2-(dimethylamino)ethyl]-1-methyl-1H-pyrazolo[3,4-b]pyridine-4-carboxamide]				> 300 µM			
CC(C)c1cc(C(=O)NCCN(C)C)c2cnn(C(C)C)c2n1 [Compound 10a, N-[2-(dimethylamino)ethyl]-1,6-bis(propan-2-yl)-1H-pyrazolo[3,4-b]pyridine-4-carboxamide]	0.1 µM	0.1 µM	0.04 µM		> 300 µM		EC50 (EV-D68; [5]): 0.09 µM; EC50 (EV-D68; [6]): 0.07 µM; EC50 (EV-D68; [7]): 0.1 µM; EC50 (EV-D68; [8]): 0.07 µM; EC50 (EV-D68; [9]): 0.08 µM; EC50 (EV-A71; read-out: EC50, EV-A71 A71 MP4): 0.2 µM; EC50 (EV-A71; [10]): 0.2 µM; EC50 (EV-A71; [11]): 0.06 µM; EC50 (EV-D68 US/MO/14-18947): 0.03 µM; EC50 (EV-D68, EV-A71, and CVB3): 0.06 to 0.3 µM
CC(C)n1ncc2c(C(=O)NCCN(C)C)cc(C3CC3)nc21 [Compound 7d, 6-cyclopropyl-N-[2-(dimethylamino)ethyl]-1-(propan-2-yl)-1H-pyrazolo[3,4-b]pyridine-4-carboxamide]	0.1 µM	0.8 µM	0.2 µM			200 µM	EC50 (EV-D68; [5]): 0.04 µM; EC50 (EV-D68; [6]): 0.04 µM; EC50 (EV-D68; [7]): 0.1 µM; EC50 (EV-D68; [8]): 0.1 µM; EC50 (EV-D68; [9]): 0.1 µM; EC50 (EV-A71; read-out: EC50, EV-A71 A71 MP4): 0.1 µM; EC50 (EV-A71; [10]): 0.1 µM; EC50 (EV-A71; [11]): 0.06 µM; binding to EV-A71 2C protein [1]: dose-response binding; binding to CVB3 2C protein (CVB3 Nancy 2C protein): dose-response binding; EC50 values in words (summary across viruses) (EV-D68, EV-A71, and CVB3): nanomolar range; EC50 (EV-D68, EV-A71, and CVB3): 0.04 to 0.1 µM; CC50 (in vitro; CC50 (EV-A71 Tainan/4643/1998)): 200 µM; CC50 (in vitro; [12]): 200 µM; CC50 (in vitro; [13]): 200 µM; CC50 (in vitro; [14]): 200 µM; CC50 (in vitro; [15]): 200 µM; CC50 (in vitro; [16]): 200 µM; CC50 (in vitro; [17]): 200 µM; CC50 (in vitro; [18]): 200 µM
Cc1cc(C(=O)NC2CN(C)C2)c2cnn(C(C)C)c2n1 [Compound 12c, 6-methyl-N-(1-methylazetidin-3-yl)-1-(propan-2-yl)-1H-pyrazolo[3,4-b]pyridine-4-carboxamide]	11.3 µM	7.3 µM	3.8 µM	> 300 µM	> 300 µM	> 300 µM	
CNCCNC(=O)c1cc(C)nc2c1cnn2C(C)C [Compound 12d, 6-methyl-N-(methylamino)ethyl-1-(propan-2-yl)-1H-pyrazolo[3,4-b]pyridine-4-carboxamide]	2.3 µM	0.5 µM	1.4 µM	> 300 µM	> 300 µM	> 300 µM	
CCn1ncc2c(C(=O)NCCN(C)C)cc(C)nc21 [Compound 15a, N-[2-(dimethylamino)ethyl]-1-ethyl-6-methyl-1H-pyrazolo[3,4-b]pyridine-4-carboxamide]	18.3 µM			> 300 µM			
